Laboratory results reported in US20190321345A1, “GLUT4 Selective Inhibitors for Cancer Therapy” (Emory University, priority 2016, published 2019).

Tests used:
GLUT1 = biological target: T1, GLUT1 (Homo sapiens, UniProt P11166); experiment: 2-DOG transport in HEK293 cells over-expressing GLUT1; assay type: cell-based; conditions: pre-treated 5 minutes, 2-DOG uptake 4 min; read-out: IC50 (inhibition of 2-DOG transport in HEK cells over-expressing GLUT isoforms) GLUT1
T1 construct: expressed in transfected cells; host or cells: HEK293
T1 sequence (P11166 1-492): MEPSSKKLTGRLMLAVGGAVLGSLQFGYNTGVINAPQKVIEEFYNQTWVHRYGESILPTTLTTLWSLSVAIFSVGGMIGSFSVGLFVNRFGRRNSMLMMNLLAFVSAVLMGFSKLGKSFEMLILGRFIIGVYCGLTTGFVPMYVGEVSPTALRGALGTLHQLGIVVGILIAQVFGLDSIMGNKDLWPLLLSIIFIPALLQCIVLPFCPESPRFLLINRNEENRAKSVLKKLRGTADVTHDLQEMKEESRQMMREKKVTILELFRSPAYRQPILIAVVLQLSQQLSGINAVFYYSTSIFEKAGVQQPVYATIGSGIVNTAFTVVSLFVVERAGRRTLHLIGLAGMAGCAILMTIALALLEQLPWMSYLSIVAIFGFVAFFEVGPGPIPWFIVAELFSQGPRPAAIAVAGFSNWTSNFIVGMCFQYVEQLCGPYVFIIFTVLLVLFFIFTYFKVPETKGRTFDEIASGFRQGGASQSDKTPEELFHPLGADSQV
Experimental: Tissue culture plates were pretreated with 25 μg/ml polyethyleneimine (Fluka, catalogue number P3143) in 150 mM NaCl for 20min to let cells adhere. JNN3 cells were subsequently plated and grown to 40-60% confluency in complete RPMI 1640 medium. HEK293 GLUT overexpressing cells were plated at 400,000 cells/ml overnight. Cells were then washed with glucose-free HEPES buffer twice and starved for 30 min. The uptake of 2-[^3H] deoxy-D-glucose (2-DOG) (50 μM) was measured in glucose-free HEPES buffer for 4-6 min at 37° C. Compound 20 (20 μM) was added 5-6 min prior to the addition of glucose depending on the specific assay. For the HEK293 GLUT overexpressing cells, non-specific uptake was measured in non-transfected HEK293 cells containing the shRNA GLUT1 knockdown and was subtracted from the experimental values. Data are plotted as percent uptake relative to unexposed HEK293 cultures. Data were normalized to fit by nonlinear regression analysis using GraphPad Prism software. […]
Glucose transport in HEK293 cells over-expressing GLUT1 or over-expressing GLUT4 or GLUT8 in cells lacking GLUT1 were used to evaluate inhibition of glucose transport. […] Non-specific uptake was measured in nontransfected HEK293 cells containing the shRNA GLUT1 knockdown and was subtracted from the experimental values.

GLUT4 = biological target: T2, GLUT4 (Homo sapiens, UniProt P14672); experiment: 2-DOG transport in HEK293 cells over-expressing GLUT4; assay type: cell-based; conditions: pre-treated 5 minutes, 2-DOG uptake 4 min; cells lacking GLUT1; read-out: IC50 (inhibition of 2-DOG transport in HEK cells over-expressing GLUT isoforms) GLUT4
T2 construct: expressed in transfected cells; host or cells: HEK293 stably expressing GLUT1 shRNA
T2 sequence (P14672 1-509): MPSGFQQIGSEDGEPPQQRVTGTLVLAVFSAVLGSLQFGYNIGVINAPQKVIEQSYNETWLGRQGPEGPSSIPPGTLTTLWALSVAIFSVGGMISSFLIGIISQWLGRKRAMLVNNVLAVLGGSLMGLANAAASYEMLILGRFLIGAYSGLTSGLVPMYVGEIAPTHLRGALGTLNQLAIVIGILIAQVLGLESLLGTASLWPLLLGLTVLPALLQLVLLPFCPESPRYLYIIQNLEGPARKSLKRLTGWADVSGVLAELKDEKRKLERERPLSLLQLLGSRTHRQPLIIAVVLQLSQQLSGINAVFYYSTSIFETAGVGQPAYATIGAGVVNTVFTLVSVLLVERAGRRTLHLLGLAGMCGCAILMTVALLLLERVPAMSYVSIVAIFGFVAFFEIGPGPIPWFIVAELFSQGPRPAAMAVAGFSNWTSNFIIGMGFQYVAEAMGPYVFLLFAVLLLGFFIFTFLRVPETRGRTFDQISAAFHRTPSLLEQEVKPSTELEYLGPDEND
Experimental: (§1) Tissue culture plates were pretreated with 25 μg/ml polyethyleneimine (Fluka, catalogue number P3143) in 150 mM NaCl for 20min to let cells adhere. JNN3 cells were subsequently plated and grown to 40-60% confluency in complete RPMI 1640 medium. HEK293 GLUT overexpressing cells were plated at 400,000 cells/ml overnight. Cells were then washed with glucose-free HEPES buffer twice and starved for 30 min. The uptake of 2-[^3H] deoxy-D-glucose (2-DOG) (50 μM) was measured in glucose-free HEPES buffer for 4-6 min at 37° C. Compound 20 (20 μM) was added 5-6 min prior to the addition of glucose depending on the specific assay. For the HEK293 GLUT overexpressing cells, non-specific uptake was measured in non-transfected HEK293 cells containing the shRNA GLUT1 knockdown and was subtracted from the experimental values. Data are plotted as percent uptake relative to unexposed HEK293 cultures. Data were normalized to fit by nonlinear regression analysis using GraphPad Prism software.
(§2) Compound 20 was further screened for GLUT4 selectivity by evaluating inhibition of glucose transport in HEK 293 cells exogenously over-expressing human GLUTs-1, -2, -3, -4, or -8 that also stably express GLUT1 shRNA (except the GLUT1 overexpressing cell line) to knock down endogenous GLUT1.
(§3) Glucose transport in HEK293 cells over-expressing GLUT1 or over-expressing GLUT4 or GLUT8 in cells lacking GLUT1 were used to evaluate inhibition of glucose transport. Cells were pre-treated with compound for 5 minutes followed by evaluation of […] uptake for 4 min at […]. Non-specific uptake was measured in nontransfected HEK293 cells containing the shRNA GLUT1 knockdown and was subtracted from the experimental values.

GLUT8 = biological target: T3, GLUT8 (Homo sapiens, UniProt Q9NY64); experiment: 2-DOG transport in HEK293 cells over-expressing GLUT8; assay type: cell-based; conditions: pre-treated 5 minutes, 2-DOG uptake 4 min; cells lacking GLUT1; read-out: IC50 (inhibition of 2-DOG transport in HEK cells over-expressing GLUT isoforms) GLUT8
T3 construct: expressed in transfected cells; host or cells: HEK293 stably expressing GLUT1 shRNA
T3 sequence (Q9NY64 1-477): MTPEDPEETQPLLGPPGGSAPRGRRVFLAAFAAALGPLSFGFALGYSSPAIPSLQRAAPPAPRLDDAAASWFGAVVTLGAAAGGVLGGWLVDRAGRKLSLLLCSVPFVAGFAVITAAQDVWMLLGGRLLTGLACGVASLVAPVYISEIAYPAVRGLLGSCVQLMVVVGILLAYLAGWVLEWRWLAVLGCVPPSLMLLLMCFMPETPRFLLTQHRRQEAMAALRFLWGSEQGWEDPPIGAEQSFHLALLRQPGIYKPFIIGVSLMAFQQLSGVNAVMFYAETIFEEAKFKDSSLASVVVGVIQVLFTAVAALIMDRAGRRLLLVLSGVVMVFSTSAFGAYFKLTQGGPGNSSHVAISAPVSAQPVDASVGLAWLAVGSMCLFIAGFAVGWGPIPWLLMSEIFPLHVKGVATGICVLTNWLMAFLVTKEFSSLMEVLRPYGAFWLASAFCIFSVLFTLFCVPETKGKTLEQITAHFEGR
Experimental: as §1, §2, §3

H1299 cell = H1299 cell invasion; assay type: cell-based, human; conditions: FIG. 9

Work on `Oc1cccc(CNCc2ccncc2)c1` [Compound 3, reference compound] yielded an IC50 (GLUT1) greater than 100 µM, an IC50 (GLUT4) of 18.9 µM and an IC50 (GLUT8) greater than 100 µM.
For `COc1ccc(C(=O)N(Cc2ccncc2)Cc2cccc(OCCc3ccc(F)cc3)c2)cc1` [Compound 26], the IC50 (GLUT4) was 3.5 µM, the H1299 cell invasion (H1299 cell) was “inhibits H1299 cell invasion” and the IC50 (GLUT8) was 6 µM.
